# The source made the active and inactive calls. The rule behind the calls is not given here.
# Columns and labels:
# [1] = target: Alpha-glucosidase MAL12 (Saccharomyces cerevisiae S288c) (UniProt P53341); assay: Inhibition of yeast alpha-glucosidase MAL12 at 5 mM using 4-nitrophenyl-alpha-D-glucopyranoside as substrate preincubated for 30 mins followed by substrate addition measured after 10 mins by microplate reader analysis
# Alpha-glucosidase MAL12 = Alpha-glucosidase MAL12 (Saccharomyces cerevisiae S288c, UniProt P53341); assay: Inhibition of yeast alpha-glucosidase MAL12 using 4-nitrophenyl-alpha-D-glucopyranoside as substrate preincubated for 30 mins followed by substrate addition measured after 10 mins by microplate reader analysis
# [2] = target: T1, Pancreatic alpha-amylase (Homo sapiens) (UniProt P04746); assay: Inhibition of pancreatic alpha-amylase (unknown origin) at 5 mM using starch as substrate preincubated for 30 mins followed by substrate addition measured after 10 mins by dinitrosalicylic acid method based microplate reader analysis
# T1 sequence (whole entry): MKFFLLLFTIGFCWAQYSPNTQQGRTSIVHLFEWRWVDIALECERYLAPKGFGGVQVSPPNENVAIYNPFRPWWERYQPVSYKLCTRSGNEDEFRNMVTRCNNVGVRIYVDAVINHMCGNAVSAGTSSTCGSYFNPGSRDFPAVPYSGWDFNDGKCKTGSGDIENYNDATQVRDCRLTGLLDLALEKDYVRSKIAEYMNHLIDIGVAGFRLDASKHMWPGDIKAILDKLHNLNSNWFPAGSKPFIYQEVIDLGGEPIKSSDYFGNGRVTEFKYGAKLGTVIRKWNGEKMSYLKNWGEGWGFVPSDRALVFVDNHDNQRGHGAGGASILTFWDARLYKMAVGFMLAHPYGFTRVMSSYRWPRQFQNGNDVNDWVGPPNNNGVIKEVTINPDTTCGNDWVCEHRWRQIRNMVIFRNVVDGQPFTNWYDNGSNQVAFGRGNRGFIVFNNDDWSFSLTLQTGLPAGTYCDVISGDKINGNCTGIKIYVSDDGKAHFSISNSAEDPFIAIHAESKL
# Sequence of Alpha-glucosidase MAL12 (Saccharomyces cerevisiae S288c) (P53341 whole entry): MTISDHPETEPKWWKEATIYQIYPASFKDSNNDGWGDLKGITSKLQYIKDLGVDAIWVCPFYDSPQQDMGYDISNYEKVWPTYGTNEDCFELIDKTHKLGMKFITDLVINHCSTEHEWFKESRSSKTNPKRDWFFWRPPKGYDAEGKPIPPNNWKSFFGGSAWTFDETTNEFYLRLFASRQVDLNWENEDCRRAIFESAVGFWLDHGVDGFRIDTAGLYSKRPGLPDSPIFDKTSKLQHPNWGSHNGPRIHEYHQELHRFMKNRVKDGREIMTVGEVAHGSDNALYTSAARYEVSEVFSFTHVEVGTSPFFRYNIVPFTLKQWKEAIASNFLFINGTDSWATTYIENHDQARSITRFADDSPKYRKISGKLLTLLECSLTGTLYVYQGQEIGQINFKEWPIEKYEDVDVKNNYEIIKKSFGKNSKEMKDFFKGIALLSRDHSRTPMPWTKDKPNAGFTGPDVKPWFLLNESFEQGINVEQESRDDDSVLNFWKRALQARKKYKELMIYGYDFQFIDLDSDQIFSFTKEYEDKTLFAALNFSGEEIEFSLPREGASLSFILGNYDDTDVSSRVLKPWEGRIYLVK
# Sequence of Alpha-glucosidase MAL12 (P53341 whole entry): as above
SMILES,inhibition [1],IC50 (Alpha-glucosidase MAL12) [µM],inhibition [2]
c1csc(-c2ccnc3nnnn23)c1,Active,1010,inactive
O=c1oc2ccccc2cc1-c1ccnc2nnnn12,Active,446,inactive
c1ccc(-c2ccnc3nnnn23)nc1,Active,591,inactive
Brc1ccc(-c2ccnc3nnnn23)cc1,Active,,inactive
Oc1ccccc1-c1ccnc2nnnn12,Active,1740,inactive
c1ccc2oc(-c3ccnc4nnnn34)cc2c1,Active,,inactive

# Second part, the compound after the results:
inhibition [1],IC50 (Alpha-glucosidase MAL12) [µM],inhibition [2],SMILES
Active,421,inactive,Clc1ccc(-c2ccnc3nnnn23)cc1
Active,49.8,inactive,Cc1ccc(-c2ccnc3nnnn23)cc1
Active,178,inactive,Fc1ccc(-c2ccnc3nnnn23)cc1
Active,422,inactive,c1ccc(-c2ccnc3nnnn23)cc1
Active,85.7,inactive,COc1ccc(-c2ccnc3nnnn23)cc1
Active,308,inactive,O=[N+]([O-])c1ccc(-c2ccnc3nnnn23)cc1
